Measurements taken from patent US20100003542A1, “Coating of artificial surfaces of medical aids and instruments, and cleaning and/or pretreatment of catheters and other medical aids and instruments” (BAYER SCHERING PHARMA AKTIENGESSELSCHAFT, priority 2006, published 2010).

Test system: intrinsic blood clotting system
Assay: Determination of the inhibition of contact activation: activated partial thromboplastin time (aPTT) in platelet-poor plasma
Set-up: species or system human
Details: concentration of inhibitor causing twofold prolongation of aPTT; platelet-poor citrate plasma from healthy volunteers; 10 min incubation at 37° C.; PTT reagent (kaolin/cephalin)
Source text: The contact activation can be measured by means of a global plasma clotting test, the activated partial thromboplastin time (aPTT), which detects the effect on factors of the intrinsic blood clotting system.
The PTT reagent is a mixture of kaolin suspension, that is “silicates”, which mimic the negatively charged foreign surface, and cephalin, that is phospholipids, which are needed as a surface for the conversion of factor XII into factor XIIa. In the presence of a foreign surface, phospholipid and Ca^2+, factor XII is converted to factor XIIa.
This PTT reagent is added to specially prepared plasma (see examples). The clotting is triggered when the necessary calcium^2+ ions are present, i.e. by addition of a calcium dichloride solution. The time between calcium^2+ addition and the onset of clotting is then measured, and the concentration of inhibitor [in μM] which causes a twofold prolongation of the aPTT is stated.
The contact activation is determined by determination of the partial thromboplastin time. The test principle is as follows: the plasma sample is treated with a mixture of the partial thromboplastin cephalin (phospholipid from rabbit brain) and the surface activator kaolin. The contact activation of the intrinsic clotting system up to fibrin formation is thus set in motion.
For the determination of the partial thromboplastin time, blood from healthy volunteers of both sexes, who had not received any medication affecting clotting within the last ten days, was used. The blood is collected in Monovettes (Sarstedt, Nümbrecht) which contain sodium citrate (1 part citrate+9 parts blood) as anticoagulant. To obtain platelet-poor plasma, the citrate (3.8%) whole blood is centrifuged at 2500 g for 10 min at 4° C. and stored at −20° C. For the determination of the clotting time, aliquots of the platelet-poor plasma (0.1 ml) are incubated with increasing concentrations of test substance or the corresponding solvent for 10 mins at 37° C. Next, the clotting time is determined in accordance with the manufacturer's directions (PTT Reagent®, Roche Diagnostics). For this the procedure is as follows: 0.1 ml of PTT reagent is pipetted into the plasma, and the sample incubated for three minutes at 37° C. The clotting is then triggered in a coagulometer by addition of 0.1 ml of calcium chloride solution and the time to onset of clotting is measured. In this manner, the 2-fold prolongation of the aPTT is determined for selected compounds.

With `O=C(NC[C@H]1CN(c2ccc(N3CCOCC3=O)c(F)c2)C(=O)O1)c1ccc(Cl)s1` [Example 130a] the “Twofold prolongation of the aPTT” value was 0.4 µM.
In the case of `Cc1cc(N2CC(CNC(=O)c3ccc(Cl)s3)OC2=O)ccc1N1CCOCC1=O` (centres unmarked) [Example 115], the “Twofold prolongation of the aPTT” value is reported as 1.34 µM.
`Nc1cc(N2CC(CNC(=O)c3ccc(Cl)s3)OC2=O)ccc1N1CCOCC1=O` (centres unmarked) [Example 123] was tested, and the “Twofold prolongation of the aPTT” value was 1.22 µM.
For `O=C(NC[C@H]1CN(c2ccc(N3CCOCC3=O)cc2)C(=O)O1)c1ccc(Cl)s1` [Example 44, 5-chloro-N-({(5S)-2-oxo-3-[4-(3-oxo-4-morpholinyl)phenyl]-1,3-oxazolidin-5-yl}methyl)-2-thiophencarboxamide], the “Twofold prolongation of the aPTT” value was 0.69 µM.
In the case of `O=C(NC[C@H]1CN(c2ccc(N3CCCCC3=O)cc2)C(=O)O1)c1ccc(Cl)s1` [Example 162], the “Twofold prolongation of the aPTT” value is reported as 2.5 µM.
`O=C(NC[C@H]1CN(c2ccc(N3CCCC3=O)cc2)C(=O)O1)c1ccc(Br)s1` [Example 56] was tested, and the “Twofold prolongation of the aPTT” value was 4.3 µM.
`O=C(NCC1CN(c2ccc(N3CCOCC3=O)c(F)c2)C(=O)O1)c1ccc(Cl)s1` (centres unmarked) [Example 95] was tested, and the “Twofold prolongation of the aPTT” value was 0.51 µM.
In the case of `O=C(NCC1CN(c2ccc(N3CCCC3=O)c(C(F)(F)F)c2)C(=O)O1)c1ccc(Cl)s1` (centres unmarked) [Example 112], the “Twofold prolongation of the aPTT” value is reported as 1.6 µM.
With `O=C(NCC1CN(c2ccc(N3CCOCC3=O)c(Cl)c2)C(=O)O1)c1ccc(Cl)s1` (centres unmarked) [Example 113] the “Twofold prolongation of the aPTT” value was 0.55 µM.
`O=C(NC[C@H]1CN(c2ccc(N3CCCC3=O)cc2)C(=O)O1)c1ccc(Cl)s1` [Example 17] was tested, and the “Twofold prolongation of the aPTT” value was 1.8 µM.
In the case of `O=C(NCC1CN(c2ccc(N3CCOCC3=O)c(C(F)(F)F)c2)C(=O)O1)c1ccc(Cl)s1` (centres unmarked) [Example 114], the “Twofold prolongation of the aPTT” value is reported as 2.2 µM.
